ChEMBL document CHEMBL1137048, “Design and evaluation of novel nonsteroidal dissociating glucocorticoid receptor ligands” (Bioorg Med Chem Lett, 2004)
pEC50, pIC50: −log10 of the molar value.

Legend:
[1] = target: T1, Glucocorticoid receptor (Rattus norvegicus, UniProt P06536); assay: Effective concentration against MMTV in transactivation assay in U2OS cells expressing rat GR; format: functional, cell-based
T1 sequence (P06536 whole entry): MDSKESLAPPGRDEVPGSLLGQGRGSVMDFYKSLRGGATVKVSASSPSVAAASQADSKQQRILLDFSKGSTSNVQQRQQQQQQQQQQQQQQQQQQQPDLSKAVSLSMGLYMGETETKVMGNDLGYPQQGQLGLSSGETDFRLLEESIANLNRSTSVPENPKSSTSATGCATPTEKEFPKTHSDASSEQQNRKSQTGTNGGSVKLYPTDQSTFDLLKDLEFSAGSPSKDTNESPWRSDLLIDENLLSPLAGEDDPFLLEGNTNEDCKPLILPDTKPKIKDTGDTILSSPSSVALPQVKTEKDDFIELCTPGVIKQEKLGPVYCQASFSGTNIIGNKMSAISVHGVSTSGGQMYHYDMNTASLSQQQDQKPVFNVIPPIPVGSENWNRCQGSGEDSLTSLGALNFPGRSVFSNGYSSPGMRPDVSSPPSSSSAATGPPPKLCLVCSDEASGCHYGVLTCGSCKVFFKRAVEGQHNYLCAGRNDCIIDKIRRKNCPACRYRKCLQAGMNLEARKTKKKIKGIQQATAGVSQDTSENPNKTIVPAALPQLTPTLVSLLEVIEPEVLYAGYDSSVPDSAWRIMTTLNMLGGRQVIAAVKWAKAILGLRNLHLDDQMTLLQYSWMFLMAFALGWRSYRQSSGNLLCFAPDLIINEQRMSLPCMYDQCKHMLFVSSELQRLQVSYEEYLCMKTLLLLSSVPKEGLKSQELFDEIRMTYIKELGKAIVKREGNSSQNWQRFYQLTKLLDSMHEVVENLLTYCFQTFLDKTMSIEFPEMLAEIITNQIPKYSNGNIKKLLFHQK

[2] = target: T1, Glucocorticoid receptor; assay: Inhibition against U2OS cells expressing rat Glucocorticoid receptor; format: cell-based
[3] = target: T1, Glucocorticoid receptor; assay: Repression of AP1-luciferase reporter activity in TPA-stimulated U2OS cells expressing rat glucocorticoid receptor; format: functional, cell-based
[4] = target: T1, Glucocorticoid receptor; assay: Repression of NF-kappaB-luciferase reporter activity in TPA stimulated U2OS cells expressing rat glucocorticoid receptor; format: functional, cell-based
[5] = target: T2, Glucocorticoid receptor (Homo sapiens, UniProt P04150); assay: Binding affinity for recombinant human glucocorticoid receptor
T2 sequence (P04150 whole entry): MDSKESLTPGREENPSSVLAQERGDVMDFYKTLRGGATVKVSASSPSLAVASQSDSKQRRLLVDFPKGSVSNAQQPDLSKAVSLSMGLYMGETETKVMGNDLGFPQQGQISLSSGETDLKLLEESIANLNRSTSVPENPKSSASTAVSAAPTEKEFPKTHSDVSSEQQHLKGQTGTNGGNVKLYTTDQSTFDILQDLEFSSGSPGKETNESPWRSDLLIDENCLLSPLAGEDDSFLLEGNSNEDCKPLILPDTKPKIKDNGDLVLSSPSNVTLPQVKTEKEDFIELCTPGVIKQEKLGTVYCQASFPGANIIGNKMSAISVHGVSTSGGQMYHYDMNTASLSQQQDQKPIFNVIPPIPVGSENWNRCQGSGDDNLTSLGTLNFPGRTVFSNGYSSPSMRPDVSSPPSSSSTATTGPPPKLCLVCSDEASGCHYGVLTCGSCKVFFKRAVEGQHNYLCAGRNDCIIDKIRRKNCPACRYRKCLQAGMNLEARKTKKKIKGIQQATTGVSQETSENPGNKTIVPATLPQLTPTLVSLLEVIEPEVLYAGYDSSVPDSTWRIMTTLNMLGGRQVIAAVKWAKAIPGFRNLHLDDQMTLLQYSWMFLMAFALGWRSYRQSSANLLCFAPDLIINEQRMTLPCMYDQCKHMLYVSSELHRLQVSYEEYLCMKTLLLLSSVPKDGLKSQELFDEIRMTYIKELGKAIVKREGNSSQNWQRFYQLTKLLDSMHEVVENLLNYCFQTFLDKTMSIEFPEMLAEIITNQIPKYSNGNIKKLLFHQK

[6] = target: T2, Glucocorticoid receptor; assay: Effective concentration in CV-1 cell transactivation assay; format: functional, cell-based

| pEC50 [1] | pIC50 [2] | pEC50 [3] | pEC50 [4] | Structure (SMILES) | pIC50 [5] | pEC50 [6] |
| --- | --- | --- | --- | --- | --- | --- |
| 8.52 | 8.10 | 8.52 | 8.40 | C[C@]12Cc3cnn(-c4ccc(F)cc4)c3C=C1CCC[C@@H]2C(O)c1ccccc1 (stereo partly drawn) | – | – |
| – | – | – | – | COc1cc(C(O)C2CCCC3=CC(=O)CCC32C)cc(OC)c1OC (stereo not drawn) | < 5.70 | – |
| 8.40 | 8.31 | 8.22 | 8.40 | CCCCCCCCC(O)[C@H]1CCCC2=Cc3c(cnn3-c3ccc(F)cc3)C[C@@]21C (stereo partly drawn) | – | – |
| 8.52 | 8.28 | 8.52 | 8.52 | C[C@]12Cc3cnn(-c4ccc(F)cc4)c3C=C1CCC[C@@H]2C(O)c1cccc(O)c1 (stereo partly drawn) | – | – |
| 8.30 | 9.15 | 8.10 | 8.52 | CCCCC(O)[C@H]1CCCC2=Cc3c(cnn3-c3ccc(F)cc3)C[C@@]21C (stereo partly drawn) | – | – |
| 7.96 | 8.07 | 8.15 | 8.52 | C[C@]12Cc3cnn(-c4ccc(F)cc4)c3C=C1CCC[C@@H]2C(O)CCc1ccccc1 (stereo partly drawn) | – | – |
| – | – | – | – | CC12CCC(=O)C=C1CCCC2C(O)c1ccccc1 (stereo not drawn) | 5.68 | – |
| 7.70 | 8.18 | 7.80 | 7.92 | C[C@]12Cc3cnn(-c4ccc(F)cc4)c3C=C1CCC[C@@H]2C(O)c1ccc(O)cc1 (stereo partly drawn) | – | – |
| 8.40 | 8.60 | 8.52 | 8.10 | Cc1ccc(C(O)[C@H]2CCCC3=Cc4c(cnn4-c4ccc(F)cc4)C[C@@]32C)cc1 (stereo partly drawn) | – | – |
| 7.51 | 7.85 | 7.51 | 7.62 | C[C@]12Cc3cnn(-c4ccc(F)cc4)c3C=C1CCC[C@@H]2C(O)c1ccc(C(F)(F)F)cc1 (stereo partly drawn) | – | – |
| 8.05 | 8.26 | 7.77 | 7.96 | C[C@]12Cc3cnn(-c4ccc(F)cc4)c3C=C1CCC[C@@H]2C(O)Cc1ccccc1 (stereo partly drawn) | – | – |
| 8.05 | 8.15 | 8.52 | 8.40 | C[C@]12Cc3cnn(-c4ccc(F)cc4)c3C=C1CCC[C@@H]2C(O)c1ccc(Cl)cc1 (stereo partly drawn) | – | – |
| 7.70 | 8.74 | 8.74 | 7.66 | C[C@]12Cc3cnn(-c4ccc(F)cc4)c3C=C1CCC[C@@H]2C(O)c1csc2ccccc12 (stereo partly drawn) | – | – |
| 8.40 | 8.64 | 7.72 | 8.52 | COc1cccc(C(O)[C@H]2CCCC3=Cc4c(cnn4-c4ccc(F)cc4)C[C@@]32C)c1 (stereo partly drawn) | – | – |
| – | – | – | – | CC12CCC(=O)C=C1CCCC2C(O)c1csc2ccccc12 (stereo not drawn) | 6.78 | – |

| Structure (SMILES) | pEC50 [1] | pIC50 [2] | pEC50 [3] | pEC50 [4] | pIC50 [5] | pEC50 [6] |
| --- | --- | --- | --- | --- | --- | --- |
| C[C@]12Cc3cnn(-c4ccc(F)cc4)c3C=C1CCC[C@@H]2C(O)c1ccc(Oc2ccccc2)cc1 (stereo partly drawn) | – | 7.81 | – | – | – | – |
| C[C@@H]1C[C@H]2C3CCC4=CC(=O)C=C[C@]4(C)[C@@]3(F)[C@@H](O)C[C@]2(C)[C@@]1(O)C(=O)O (stereo partly drawn) | 9.70 | 8.85 | 9.70 | 9.52 | 8.30 | 8.25 |
